Results taken from PMC10425210 (The Journal of Clinical Investigation, 2023).
Read-outs that look alike come from different tables or passages of the source.

What was measured:
[1] = Safety and tolerability of subcutaneous LEN dosing; assay type: in vivo, rhesus macaques
Source text: Injections at all dose levels were generally well tolerated without notable clinical observations. […] Grade 1 edema and/or erythema was observed across multiple time points and animals from all 5 dose groups and was fully resolved by week 11 after dose.
All animals were housed at Bioqual Inc. For the in vivo SHIV stock titration study, 8 untreated outbred Indian-origin male rhesus macaques aged 3–5 years were challenged intrarectally per round for a total of 5 challenge rounds using increasing virus doses ranging from 0.625 to 100 TCID50, with the 100 TCID50 round performed twice for increased resolution (Supplemental Table 2). Plasma viral load was measured to confirm the infection status. […] Injection sites were monitored daily by veterinary staff for 2 weeks and then weekly through the end of study. On week 7, 11 animals were challenged by the intrarectal route with 1 mL RPMI containing 100 TCID50 SHIV-SF162P3. Whole blood was collected and processed into plasma and PBMCs as necessary for the assessment of routine hematology and clinical chemistry, viral load analysis, serology, and the bioanalysis of drug levels. Animals were considered protected if they remained SHIV negative by a plasma PCR assay and seronegative by enzyme immunoassay through week 10 after challenge.

[2] = test system: SHIV-SF162P3; assay type: in vivo, rhesus macaques

**Q.** Which results are given for `CC(C)(C#Cc1ccc(-c2ccc(Cl)c3c(NS(C)(=O)=O)nn(CC(F)(F)F)c23)c([C@H](Cc2cc(F)cc(F)c2)NC(=O)Cn2nc(C(F)(F)F)c3c2C(F)(F)[C@@H]2C[C@H]32)n1)S(C)(=O)=O` [LEN, Lenacapavir]?
**A.** safety and tolerability of subcutaneous injection ([1]; all dose levels tested, 5-75 mg/kg): safe and well tolerated; time by which Grade 1 edema and/or erythema was fully resolved ([1]; male, outbred Indian-origin, rhesus monkey, in vivo): ≤ 11 week after dose; Hematology analyses ([1]; rhesus monkey, in vivo): no abnormal values; time of measurable anti-capsid (p27) antibodies ([2]; 3 animals positive for SHIV by qPCR): ≤ 4 week after challenge; first detectable intact SHIV DNA ([2]; 3 animals with confirmed viremia): 2 week after challenge; animals becoming infected ([2]; LEN exposure above the 70 nM target at challenge): 0 of 6; Animal number, Infected ([2]; LEN-dosed <target (70 nM)): 3; Animal number, Uninfected ([2]; LEN-dosed <target (70 nM)): 2; Animal number, Infected ([2]; LEN-dosed >target (70 nM)): 0; Animal number, Uninfected ([2]; LEN-dosed >target (70 nM)): 6; Animal number, Infected ([2]; LEN-dosed total): 3; Animal number, Uninfected ([2]; LEN-dosed total): 8; Challenge outcome ([2]; animal BM55, 20 mg/kg): Infected; Intact SHIV DNA / 10M PBMC ([2]; animal BM55, 20 mg/kg, Wk 2 post challenge): 145.35 / 10M PBMC; Plasma SHIV RNA ([2]; animal BM55, 20 mg/kg, week 6 post challenge): 7809 copies per mL; Plasma SHIV RNA ([2]; animal BM55, 20 mg/kg, week 7 post challenge): 4541 copies per mL; Plasma SHIV RNA ([2]; animal BM55, 20 mg/kg, week 8 post challenge): 69 copies per mL; Plasma SHIV RNA ([2]; animal BM55, 20 mg/kg, week 9 post challenge): 62 copies per mL; Plasma SHIV RNA ([2]; animal BM55, 20 mg/kg, week 10 post challenge): 62 copies per mL; Challenge outcome ([2]; animal BN33, 20 mg/kg): Not infected; Intact SHIV DNA / 10M PBMC ([2]; animal BN33, 20 mg/kg, Wk 2 post challenge): 1 / 10M PBMC; Intact SHIV DNA / 10M PBMC ([2]; animal BN33, 20 mg/kg, Wk 10 post challenge): 1 / 10M PBMC; Plasma SHIV RNA ([2]; animal BN33, 20 mg/kg, week 6 post challenge): 62 copies per mL; Plasma SHIV RNA ([2]; animal BN33, 20 mg/kg, week 7 post challenge): 62 copies per mL; Plasma SHIV RNA ([2]; animal BN33, 20 mg/kg, week 8 post challenge): 62 copies per mL; Plasma SHIV RNA ([2]; animal BN33, 20 mg/kg, week 9 post challenge): 62 copies per mL; Plasma SHIV RNA ([2]; animal BN33, 20 mg/kg, week 10 post challenge): 62 copies per mL; Challenge outcome ([2]; animal CP67, 75 mg/kg): Not infected; Intact SHIV DNA / 10M PBMC ([2]; animal CP67, 75 mg/kg, Wk 2 post challenge): 1 / 10M PBMC; Intact SHIV DNA / 10M PBMC ([2]; animal CP67, 75 mg/kg, Wk 10 post challenge): 1 / 10M PBMC; Plasma SHIV RNA ([2]; animal CP67, 75 mg/kg, week 0 post challenge): 62 copies per mL; Plasma SHIV RNA ([2]; animal CP67, 75 mg/kg, week 1 post challenge): 62 copies per mL; Plasma SHIV RNA ([2]; animal CP67, 75 mg/kg, week 2 post challenge): 62 copies per mL; Challenge outcome ([2]; animal V229, 20 mg/kg): Infected; Intact SHIV DNA / 10M PBMC ([2]; animal V229, 20 mg/kg, Wk 2 post challenge): 398.25 / 10M PBMC; Plasma SHIV RNA ([2]; animal V229, 20 mg/kg, week 6 post challenge): 189 copies per mL; Plasma SHIV RNA ([2]; animal V229, 20 mg/kg, week 7 post challenge): 79 copies per mL; Plasma SHIV RNA ([2]; animal V229, 20 mg/kg, week 8 post challenge): 69 copies per mL; Plasma SHIV RNA ([2]; animal V229, 20 mg/kg, week 9 post challenge): 62 copies per mL; Plasma SHIV RNA ([2]; animal V229, 20 mg/kg, week 10 post challenge): 62 copies per mL; Challenge outcome ([2]; animal V411, 50 mg/kg): Not infected; Intact SHIV DNA / 10M PBMC ([2]; animal V411, 50 mg/kg, Wk 2 post challenge): 1 / 10M PBMC; Intact SHIV DNA / 10M PBMC ([2]; animal V411, 50 mg/kg, Wk 10 post challenge): 1 / 10M PBMC; Plasma SHIV RNA ([2]; animal V411, 50 mg/kg, week 0 post challenge): 62 copies per mL; Plasma SHIV RNA ([2]; animal V411, 50 mg/kg, week 1 post challenge): 62 copies per mL; Plasma SHIV RNA ([2]; animal V411, 50 mg/kg, week 2 post challenge): 62 copies per mL; Plasma SHIV RNA ([2]; animal V411, 50 mg/kg, week 3 post challenge): 62 copies per mL; Plasma SHIV RNA ([2]; animal V411, 50 mg/kg, week 4 post challenge): 62 copies per mL; Plasma SHIV RNA ([2]; animal V411, 50 mg/kg, week 5 post challenge): 62 copies per mL; Plasma SHIV RNA ([2]; animal V411, 50 mg/kg, week 6 post challenge): 62 copies per mL; Plasma SHIV RNA ([2]; animal V411, 50 mg/kg, week 7 post challenge): 62 copies per mL; Plasma SHIV RNA ([2]; animal V411, 50 mg/kg, week 8 post challenge): 62 copies per mL; Plasma SHIV RNA ([2]; animal V411, 50 mg/kg, week 9 post challenge): 62 copies per mL; Plasma SHIV RNA ([2]; animal V411, 50 mg/kg, week 10 post challenge): 62 copies per mL; Plasma SHIV RNA ([2]; animal V411, 50 mg/kg, week 11 post challenge): 62 copies per mL; Plasma SHIV RNA ([2]; animal V411, 50 mg/kg, week 12 post challenge): 62 copies per mL; Plasma SHIV RNA ([2]; animal V411, 50 mg/kg, week 13 post challenge): 62 copies per mL; Plasma SHIV RNA ([2]; animal V411, 50 mg/kg, week 14 post challenge): 62 copies per mL; Plasma SHIV RNA ([2]; animal V411, 50 mg/kg, week 15 post challenge): 62 copies per mL; Plasma SHIV RNA ([2]; animal V411, 50 mg/kg, week 16 post challenge): 62 copies per mL; Plasma SHIV RNA ([2]; animal V411, 50 mg/kg, week 17 post challenge): 62 copies per mL; Plasma SHIV RNA ([2]; animal V411, 50 mg/kg, week 18 post challenge): 62 copies per mL; Challenge outcome ([2]; animal V417, 75 mg/kg): Not infected; Intact SHIV DNA / 10M PBMC ([2]; animal V417, 75 mg/kg, Wk 2 post challenge): 1 / 10M PBMC; Intact SHIV DNA / 10M PBMC ([2]; animal V417, 75 mg/kg, Wk 10 post challenge): 1 / 10M PBMC; Plasma SHIV RNA ([2]; animal V417, 75 mg/kg, week 0 post challenge): 62 copies per mL; Plasma SHIV RNA ([2]; animal V417, 75 mg/kg, week 1 post challenge): 62 copies per mL; Plasma SHIV RNA ([2]; animal V417, 75 mg/kg, week 2 post challenge): 62 copies per mL; Challenge outcome ([2]; animal V426, 75 mg/kg): Not infected; Intact SHIV DNA / 10M PBMC ([2]; animal V426, 75 mg/kg, Wk 2 post challenge): 1 / 10M PBMC; Intact SHIV DNA / 10M PBMC ([2]; animal V426, 75 mg/kg, Wk 10 post challenge): 1 / 10M PBMC; Plasma SHIV RNA ([2]; animal V426, 75 mg/kg, week 0 post challenge): 62 copies per mL; Plasma SHIV RNA ([2]; animal V426, 75 mg/kg, week 1 post challenge): 62 copies per mL; Plasma SHIV RNA ([2]; animal V426, 75 mg/kg, week 2 post challenge): 62 copies per mL
